{
  "source": "patent US9086405B2",
  "about": "“Animal stroke model” (UNIVERSITY OF PRINCE EDWARD ISLAND, priority 2010, dated 2015)",
  "key": {"[1]": {"test_system": "male Sprague-Dawley rats", "experiment": "Suture-induced MCAO (30 minutes) followed by 5.5 hours of reperfusion, infarct volume by TTC staining", "assay_type": "in vivo, rat", "settings": "for infarct size / neuroprotection (infarct volume): 5.5 hours reperfusion; for infarct size: p<0.05, FIG. 7; for neuroprotective effect (infarct volume): vs vehicle, FIG. 9; for neuroprotection (infarct volume): inosine 16 mg/kg after 30 mins of occlusion prior to suture removal"}, "[2]": {"test_system": "male Sprague-Dawley rats", "experiment": "Suture-induced \"permanent\" (6-hour) MCAO, infarct volume by TTC staining", "assay_type": "in vivo, rat", "settings": "for infarct size: p<0.05, FIG. 6"}},
  "note": "“Also recorded” adds a separate entry of the source.",
  "data": [
    {"compound": "CC1=NN(c2ccccc2)C(=O)C1", "note": "[edaravone]", "values": [
      {"measurement": "infarct size", "setting": "[1]; edaravone 5, 10 or 20 mg/kg i.v. after 30 minutes of MCAO (immediately prior to suture removal), vs 50% DMSO in saline", "value": "significant decreases in infarct size; also recorded: showed neuroprotective abilities"},
      {"measurement": "infarct size", "setting": "[1]; edaravone 5, 10 or 20 mg/kg i.v. after 30 minutes of MCAO (immediately prior to suture removal), vs 50% DMSO in saline, listed as Edaravone", "value": "very powerful neuroprotection"},
      {"measurement": "infarct size", "setting": "[2]; edaravone 10, 20 or 40 mg/kg i.v. 30 minutes prior to 6 hours of suture induced-MCAO, vs vehicle 50% DMSO in saline", "value": "significant decreases in infarct size; also recorded: significant levels of neuroprotection"}
    ]},
    {"compound": "Nc1nc2c(ncn2[C@@H]2O[C@H](CO)[C@@H](O)[C@H]2O)c(=O)[nH]1", "note": "[guanosine]", "values": [
      {"measurement": "neuroprotective effect (infarct volume)", "setting": "[1]; guanosine 16 mg/kg injected 30 minutes (+30) after occlusion, immediately prior to suture removal", "value": "greatest benefit; also recorded: most prominent"},
      {"measurement": "neuroprotective effect (infarct volume)", "setting": "[1]; guanosine 16 mg/kg injected 60 minutes (+60) from start of MCAO, 30 minutes post-suture removal", "value": "significant benefit; also recorded: significant neuroprotection"},
      {"measurement": "infarct volume", "setting": "[1]; guanosine 1, 2, 4, 8 or 16 mg/kg intraperitoneally 30 minutes after MCAO (prior to suture removal), 5.5 h reperfusion, FIG. 8", "value": "dose-dependent decrease in infarct volume"},
      {"measurement": "infarct volume", "setting": "[2]; guanosine 1, 2, 4, 8 or 16 mg/kg intraperitoneally 30 minutes prior to \"permanent\" (6-hour) occlusion, FIG. 8", "value": "decrease in infarct volume; also recorded: reduced infarct size"}
    ]},
    {"compound": "OC[C@H]1O[C@@H](n2cnc3c(O)ncnc32)[C@H](O)[C@@H]1O", "note": "[inosine]", "values": [
      {"measurement": "neuroprotection (infarct volume)", "setting": "[1]; FIG. 8", "value": "No neuroprotection"},
      {"measurement": "neuroprotection (infarct volume)", "setting": "[1]; FIG. 8, listed as Inosine", "value": "did not cause neuroprotection"}
    ]},
    {"compound": "estrogen", "values": [
      {"measurement": "infarct size", "setting": "[1]; estrogen 1×10-2 mg/kg i.v. 30 minutes after MCAO (immediately prior to suture removal), vs saline", "value": "significant decrease in infarct size"},
      {"measurement": "infarct size", "setting": "[1]; estrogen 1×10-2 mg/kg i.v. 30 minutes after MCAO (immediately prior to suture removal), vs saline, listed as Estrogen", "value": "showed neuroprotective abilities"},
      {"measurement": "infarct size", "setting": "[2]; estrogen 1×10-2 mg/kg i.v. 30 minutes prior to 6 hours of suture induced-MCAO, vs estrogen vehicle (saline)", "value": "significant decrease in infarct size; also recorded: significant levels of neuroprotection"}
    ]}
  ]
}
